Laboratory results reported in patent US20150359812A1, “PROPHYLACTIC/THERAPEUTIC AGENT FOR DRY EYE” (priority 2012, published 2015).

Legend:
[1] = system: radical oxygen species in lacrimal gland tissue; test: Inhibitory action to radical oxygen species using isolated lacrimal glands of mice (DCFH-DA fluorescence); type: cell-based; settings: for inhibition of radical oxygen by isolated delphinidin glycosides, FIG. 6: lacrimal gland cell suspension, DCFH-DA; for inhibition of radical oxygen in lacrimal cells, FIG. 12: comparison of delphinidin glycosides
Protocol: The action of the maqui berry extract to radical oxygen species in lacrimal gland tissue was evaluated using mice […].
The evaluation of the inhibitory action to radical oxygen species was done in the following way.
An isolated lacrimal gland was placed in a test tube, and 25 mg tissue/mL of cold phosphate-buffered saline (PBS) was added. After that, zirconia beads were added to the lacrimal gland that is to be crushed by a bead grinder. Then, 50 μL each of cell suspension was dispensed. Then, the maqui berry extract of Working Example 1 (1, 10 μg/mL) was added to the cell suspension, and then DCFH-DA solution as the radical oxygen series was added to make the final level of concentration at 75 μm. Then, after 60 minutes of incubation at 37 degrees Celsius, the cells were washed in PBS. The fluorescence-plate reader measured the intensity of fluorescence at (X485/528).
As a Comparative Example, the same test was done on lutein 10 μg/mL (compare and contrast).
Also, as a Comparative Example, the same test was done on the bilberry extract (Indena) and on the black currant extract (Tama Biochemical Co., Ltd.).
Furthermore, the same tests were done on the following examples.
Regarding Fr. 2: delphinidin-3,5-diglucoside (Working Example 3), Fr. 6: delphinidin-3-glucoside (Working Example 5) and delphinidin-3-rutinoside (Comparative Example 1: substance contained in cassis), the same evaluation as in Test Example 2 was done.
Regarding Fr. 6 delphinidin-3-glucoside (Working Example 5) and the other anthocyanin series (petunidin-3-glucoside, peonidin-3-glucoside, malvidin-3-glucoside and cyaniding-3-glucoside), the evaluation of Test Example 2 was done.

[2] = system: lacrimal cells; test: Absorption test of anthocyanins into lacrimal cells (HPLC); type: in vitro ADME; settings: 100 μM, 30 minutes at 37 degrees Celsius, compared with D3G and D3R
Protocol: The test was done in the following way. Each anthocyanin (of delphinidin-3,5-diglucoside, delphinidin-3-O-glucoside and delphinidin-3-Orutinoside) was added to the lachrymal-cells suspension at the final concentration of 100 μM.
After that, the suspension was incubated for 30 minutes at 37 degrees Celsius. Then, the cells were washed and suspended again in the buffer. Thus, the amount of anthocyanin was analyzed by HPLC. The analysis is as follows.
The condition of HPLC is as follows:
Column: YMC UltraHT Pro C18 dia.2.0×100 mm
Column temperature: 30 degrees Celsius
Eluent: A=0.3% TFA aqueous solution, B=acetonitrile
Flow rate: 0.3 mL/min, Injection volume: 50 μL
Quantitative limit: 2 ng/mL (cyaniding-3-O-glucoside)

Compound | inhibition of radical oxygen by isolated delphinidin glycosides, FIG. 6 [1] | amount of absorption of anthocyanin into the lacrimal cells, FIG. 14 [2] | inhibition of radical oxygen in lacrimal cells, FIG. 12 [1] | action in inhibiting radical oxygen in lacrimal cells compared to other anthocyanins, FIG. 13 ([1]; comparison with petunidin-, peonidin-, malvidin- and cyanidin-3-glucoside)
OC[C@H]1O[C@@H](Oc2cc(O)cc3[o+]c(-c4cc(O)c(O)c(O)c4)c(O[C@@H]4O[C@H](CO)[C@@H](O)[C@H](O)[C@H]4O[C@@H]4OC[C@@H](O)[C@H](O)[C@H]4O)cc23)[C@H](O)[C@@H](O)[C@@H]1O [Fr. 1, Delphinidin-3sambubioside-5-glucoside] | significantly inhibited |  |  | 
OC[C@H]1O[C@@H](Oc2cc3c(O[C@@H]4O[C@H](CO)[C@@H](O)[C@H](O)[C@H]4O)cc(O)cc3[o+]c2-c2cc(O)c(O)c(O)c2)[C@H](O)[C@@H](O)[C@@H]1O [Fr. 2, Delphinidin-3,5-diglucoside] | significantly inhibited | absorbed by the lacrimal cells more | excellent inhibitory action | especially excellent action
OC[C@H]1O[C@@H](Oc2cc3c(O)cc(O)cc3[o+]c2-c2cc(O)c(O)c(O)c2)[C@H](O[C@@H]2OC[C@@H](O)[C@H](O)[C@H]2O)[C@@H](O)[C@@H]1O [Fr. 5, Delphinidin-3-sambubioside] | significantly inhibited |  |  | 
OC[C@H]1O[C@@H](Oc2cc3c(O)cc(O)cc3[o+]c2-c2cc(O)c(O)c(O)c2)[C@H](O)[C@@H](O)[C@@H]1O [Fr. 6, Delphinidin-3-glucoside] | significantly inhibited |  | inhibited | 
CC1O[C@@H](OC[C@H]2OC(Oc3cc4c(O)cc(O)cc4[o+]c3-c3cc(O)c(O)c(O)c3)[C@H](O)C(O)C2O)C(O)C(O)[C@H]1O (stereo partly drawn) [delphinidin-3-rutinoside, reference compound] |  |  | did not inhibit | 
